We go through 19 compounds from patent US10654867B2 (Genentech, Inc., priority 2016, dated 2020).

The assay concerns the target T1, estrogen receptor alpha (ESR1) in MCF7 breast cancer cells (Homo sapiens, UniProt P03372).
T1 sequence (P03372 1-595): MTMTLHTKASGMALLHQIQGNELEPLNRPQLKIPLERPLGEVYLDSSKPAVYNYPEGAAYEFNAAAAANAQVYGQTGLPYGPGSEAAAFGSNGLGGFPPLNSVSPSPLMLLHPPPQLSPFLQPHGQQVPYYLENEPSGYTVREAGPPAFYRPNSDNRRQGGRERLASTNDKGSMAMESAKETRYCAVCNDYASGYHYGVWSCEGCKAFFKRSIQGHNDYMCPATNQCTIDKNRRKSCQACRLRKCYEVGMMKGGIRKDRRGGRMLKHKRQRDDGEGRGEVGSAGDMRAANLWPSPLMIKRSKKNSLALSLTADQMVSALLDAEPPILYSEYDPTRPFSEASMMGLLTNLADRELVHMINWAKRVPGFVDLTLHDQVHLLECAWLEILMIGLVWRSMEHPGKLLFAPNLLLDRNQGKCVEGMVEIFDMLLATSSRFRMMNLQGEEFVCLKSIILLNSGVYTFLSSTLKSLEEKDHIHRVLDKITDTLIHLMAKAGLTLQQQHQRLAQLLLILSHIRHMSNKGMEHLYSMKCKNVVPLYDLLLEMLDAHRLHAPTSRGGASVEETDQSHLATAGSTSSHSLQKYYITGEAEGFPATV
Kind of assay: Breast Cancer Cell ERa High Content Fluorescence Imaging Degradation Assay (ER-alpha MCF7 HCS). Particulars: 4 hours, plateau of the maximal effect; for ER-alpha MCF7HCS Sinf: DMSO and fulvestrant define 0% and 100% change in ESR1, Table 1a. Also on record: endogenous in cells; host or cells: MCF7 breast cancer cells; key to ERalpha (WT) MCF7HCS (Sinf): % change in ERα level; DMSO = 0%, fulvestrant = 100% change. The class given is cell-based. As for the experimental part: All of the exemplary Formula I, II, and III compounds in Tables 1a and 1b were made and characterized by LCMS [M+H]^+ (liquid chromatography mass spectroscopy) with detection of parent ion. All of the exemplary Formula I, II, and III compounds in Tables 1a and 1b were tested for binding to ERa (Estrogen Receptor alpha) and biological activity according to the assays, protocols, and procedures of Examples 901-907. ER-alpha MCF7 HCS Sinf (%) values in Tables 1a and 1b were measured by the Breast Cancer Cell ERa High Content Fluorescence Imaging Degradation Assay of Example 901. ER-alpha MCF7 HCS EC50 (μM) values in Tables 1a and 1b were measured by the in vitro cell proliferation assays described in Examples 902 and 903. The rat uterine wet weight assays of Examples 906 and 907 allow rapid determination of compound antagonist activity in an ER responsive tissue (immature rat uterus) while competing against the native ER ligand estradiol, i.e. antagonist mode (Ashby, J.; et al (1997) Regulatory toxicology and pharmacology: RTP, 25 (3):226-31). Exemplary Formula I, II, and III compounds in Tables 1a and 1b have the following structures, corresponding names (ChemBioDraw, Version 12.0.2, CambridgeSoft Corp., Cambridge Mass.), and biological activity. Where more than one name is associated with a Formula I, II, and III compound or intermediate, the chemical structure shall define the compound.
MCF7 breast cancer cells were seeded on day 1 at a density of 10,000 cells per well in 384 well poly-lysine coated tissue culture plate (Greiner # T-3101-4), in 50 μL/well RPMI (phenol red free), 10% FBS (Charcoal stripped), containing L-glutamine. On day 2, compounds were prepared at 2 compound source concentrations: 100 μM and 1 μM (ultimately to give 2 overlapping titration curves), in a Labcyte low dead volume plate, 10 μL/well, and 10 μL of DMSO in designated wells for backfill, and 5 μM Fulvestrant (control compound) in designated wells. Compounds and controls were dispensed using a Labcyte Echo acoustic dispenser to dispense compounds with a predefined serial dilution (1.8×, 10 point, in duplicate) and appropriate backfill and control compounds (final total volume transferred was 417.5 nL and compound dispense volume ranges from 2.5 nL to 417.5 nL; 0.84% DMSO (v/v) final), ultimately producing a concentration range from 0.05 nM to 835 nM. Cell plates were incubated at 37° C., for 4 hours. Fixation and permeabilization were carried out using a Biotek EL406 plate washer and dispenser as follows. Cells were fixed by addition of 15 μL of 16% paraformaldehyde (Electron Microscopy Sciences #15710-S) directly to the 50 μL cell culture medium in each well using the peristaltic pump 5 μL cassette on a Biotek EL406 (final concentration of formaldehyde was 3.7% w/v). Samples were incubated 30 minutes. Well contents was aspirated and 50 μL/well of Phosphate Buffered Saline (PBS) containing 0.5% w/v bovine serum albumen, 0.5% v/v Triton X-100 (Antibody Dilution Buffer) was added to each well. Samples were incubated for 30 minutes. Well contents were aspirated and washed 3 times with 100 μL/well of PBS. Immunofluorescence staining of estrogen receptor alpha (ESR1) was carried out using a Biotek EL406 plate washer and dispenser as follows. The well supernatant was aspirated from the wells and 25 μL/well of anti-ESR1 mAb (F10) (Santa Cruz sc-8002) diluted 1:1000 in Antibody Dilution Buffer was dispensed. Samples were incubated for 2 hours at room temperature. Samples were washed 4 times with 100 μL/well of PBS. 25 uL (microliters)/well of secondary antibody solution (Alexafluor 488 conjugate anti-mouse IgG (LifeTechnologies # A21202) diluted 1:1000 and Hoechst 33342 1 μg/ml diluted in Antibody Dilution Buffer) were dispensed into each well. Samples were incubated for 2 hours at room temperature. Samples were washed 3 times with 100 μL/well of PBS using a Biotek EL406. Quantitative fluorescence imaging of ESR1 was carried out using a Cellomics Arrayscan V (Thermo). […]

`C[C@@H]1Cc2c([nH]c3ccccc23)[C@]2(Cc3ccc(OC4CN(CCCF)C4)cc3C2)N1CC(F)(F)F` [Example 140]: the “ER-alpha MCF7HCS Sinf” value is on record as −15%.
The same measure, in the same setting: then `C[C@@H]1Cc2c(sc3ccccc23)[C@@H](c2c(F)cc(NC3CN(CCCF)C3)cc2F)N1CC(F)(F)CO` (single isomer, unassigned) [Example 159], with −102%.
In the case of `C[C@@H]1Cn2c(cc3ccccc32)[C@@H](c2c(F)cc([C@H](O)C3CN(CCCF)C3)cc2F)N1CC(F)(F)CO` (single isomer, unassigned) [Example 164], the “ERalpha (WT) MCF7HCS (Sinf)” value (DMSO and fulvestrant define 0% and 100% change in ESR1, Table 1b) is given as −98.6.
Turning to `C[C@@H]1Cc2[nH]c3ccccc3c2[C@@H](c2c(F)cc(NC3CN(CCCF)C3)cc2F)N1CC(F)(F)CO` (single isomer, unassigned) [Example 155], the “ER-alpha MCF7HCS Sinf” value was −97.4%.
Still for that read-out and setting: in the case of `C[C@@H]1Cc2[nH]c3ccccc3c2[C@@H](c2c(F)cc(OCCN3CC(CF)C3)cc2F)N1CC(C)(C)F` [Example 137, (1S,3R)-1-(2,6-difluoro-4-(2-(3-(fluoromethyl)azetidin-1-yl)ethoxy)phenyl)-2-(2-fluoro-2-methylpropyl)-3-methyl-2,3,4,5-tetrahydro-1H-pyrido[4,3-b]indole] it was −94.2%; in that of `C[C@H]1Cc2[nH]c3ccccc3c2[C@H](c2c(F)cc(OCCN3CC(CF)C3)cc2F)N1CC(C)(C)F` (single isomer, unassigned) [Example 136], −51%; in that of `C[C@H]1Cc2[nH]c3ccccc3c2[C@H](c2c(F)cc(NC3CN(CCCF)C3)cc2F)N1CC(F)(F)CO` (single isomer, unassigned) [Example 154], −30%.
The same measure, in the same setting: then `CC1(C)CN(CC(F)(F)CO)[C@H](c2c(F)cc(NC3CN(CCCF)C3)cc2F)c2[nH]c3ccccc3c21` [Example 142, (R)-3-(1-(2,6-difluoro-4-(1-(3-fluoropropyl)azetidin-3-ylamino)phenyl)-4,4-dimethyl-3,4-dihydro-1H-pyrido[3,4-b]indol-2(9H)-yl)-2,2-difluoropropan-1-ol], with −96%; and `C[C@H]1Cc2[nH]c3ccccc3c2[C@H](c2c(F)cc(OCCN3CC(CF)C3)cc2F)N1CC(F)(F)CO` (single isomer, unassigned) [Example 148], with −79%; and `C[C@@H]1CCN(CC(C)(C)F)[C@@H](c2c(F)cc(OCCN3CC(CF)C3)cc2F)c2[nH]c3ccccc3c21` [Example 126, (1S,5R)-1-(2,6-difluoro-4-(2-(3-(fluoromethyl)azetidin-1-yl)ethoxy)phenyl)-2-(2-fluoro-2-methylpropyl)-5-methyl-1,2,3,4,5,10-hexahydroazepino[3,4-b]indole], with −50%.
Still for that read-out and setting: then `C[C@@H]1Cn2c(cc3ccccc32)[C@@H](c2c(F)cc(OC3CN(CCCF)C3)cc2F)N1CC(C)(C)F` [Example 110, (1R,3R)-1-(2,6-Difluoro-4-((1-(3-fluoropropyl)azetidin-3-yl)oxy)phenyl)-2-(2-fluoro-2-methylpropyl)-3-methyl-1,2,3,4-tetrahydropyrazino[1,2-a]indole], with −100%; and `C[C@@H]1Cc2[nH]c3ccccc3c2[C@@H](c2c(F)cc(OC3CN(CCCF)C3)cc2F)N1CC(F)(F)CO` (relative stereo) [Example 144, trans-3-(1-(2,6-difluoro-4-(1-(3-fluoropropyl)azetidin-3-yloxy)phenyl)-3-methyl-3,4-dihydro-1H-pyrido[4,3-b]indol-2(5H)-yl)-2,2-difluoropropan-1-ol], with −98.8%; and `C[C@H]1Cc2c(oc3ccccc23)[C@H](c2c(F)cc(NC3CN(CCCF)C3)cc2F)N1CC(F)(F)CO` (single isomer, unassigned) [Example 158], with −88.8%.
For `C[C@@H]1Cn2c(cc3ccccc32)[C@H](c2c(F)cc(NC3CN(CCCF)C3)cc2F)N1CC(F)(F)F` [Example 145, N-(3,5-Difluoro-4-((1S,3R)-3-methyl-2-(2,2,2-trifluoroethyl)-1,2,3,4-tetrahydropyrazino[1,2-a]indol-1-yl)phenyl)-1-(3-fluoropropyl)azetidin-3-amine], the “ER-alpha MCF7HCS Sinf” value was −87%.
As to `C[C@@H]1CN(CC(C)(C)F)[C@@H](c2c(F)cc(OCCN3CC(CF)C3)cc2F)c2[nH]c3ccccc3c21` (single isomer, unassigned) [Example 109], the “ER-alpha MCF7HCS Sinf” value is −74.6%.
For the compound `C[C@](F)(CO)CN1CCCc2c([nH]c3ccccc23)[C@H]1c1c(F)cc(OCCN2CC(CF)C2)cc1F` [Example 118, (R)-3-((R)-1-(2,6-difluoro-4-(2-(3-(fluoromethyl)azetidin-1-yl)ethoxy)phenyl)-3,4,5,10-tetrahydroazepino[3,4-b]indol-2(1H)-yl)-2-fluoro-2-methylpropan-1-ol], the “ER-alpha MCF7HCS Sinf” value is −95.9%.
In the case of `C[C@@H]1CCc2c([nH]c3ccccc23)[C@@H](c2c(F)cc(OCCN3CC(CF)C3)cc2F)N1CC(C)(C)F` [Example 116, (1R,3R)-1-(2,6-difluoro-4-(2-(3-(fluoromethyl)azetidin-1-yl)ethoxy)phenyl)-2-(2-fluoro-2-methylpropyl)-3-methyl-1,2,3,4,5,10-hexahydroazepino[3,4-b]indole], the “ER-alpha MCF7HCS Sinf” value was −93.5%.
With `CC(C)(F)CN1CCCc2c([nH]c3ccccc23)[C@H]1c1c(F)cc(OCCN2CC(CF)C2)cc1F` [Example 103, (R)-1-(2,6-difluoro-4-(2-(3-(fluoromethyl)azetidin-1-yl)ethoxy)phenyl)-2-(2-fluoro-2-methylpropyl)-1,2,3,4,5,10-hexahydroazepino[3,4-b]indole], the “ER-alpha MCF7HCS Sinf” value is −96.7%.
Still for that read-out and setting: then `C[C@@H]1CCN(CC(C)(C)F)[C@H](c2c(F)cc(OCCN3CC(CF)C3)cc2F)c2[nH]c3ccccc3c21` [Example 123, (1R,5R)-1-(2,6-difluoro-4-(2-(3-(fluoromethyl)azetidin-1-yl)ethoxy)phenyl)-2-(2-fluoro-2-methylpropyl)-5-methyl-1,2,3,4,5,10-hexahydroazepino[3,4-b]indole], with −96.9%.
